These results are taken from patent US9376442B2, “Methylpyrrolopyrimidinecarboxamides” (Takeda GmbH, priority 2009, dated 2016).

The target of this test is T1, PDE5A1 (Homo sapiens, UniProt O76074).
T1 construct: from tissue; host or cells: human platelets from fresh donor blood (10,000 x g supernatant of sonicated lysate)
Description: Inhibition of type 5 phosphodiesterase (PDE5) activity, modified SPA test with human platelet lysate. The test is classed as biochemical. The settings on record: 0.5 μM cGMP, read-out: PDE5A1 inhibitory values [measured as −log IC50 (mol/l)] (converted). The protocol:
Method for Measuring Inhibition of the Type 5 Phosphodiesterase (PDE5) Activity:
As a source for human PDE5, platelets are used. For that purpose, 150 ml fresh blood from human donors anticoagulated with citrate [final concentration 0.3% (w/v)] is centrifuged at 200 g for 10 min to obtain the so-called platelet-rich-plasma (PRP) as a supernatant. 1/10 volume of ACD solution (85 mM Na3-citrate, 111 mM D-glucose, 71 mM citric acid, pH 4.4) is added to 9/10 volume of PRP. After centrifugation (1,400 g, 10 min) the cell pellet is resuspended in 3 ml homogenization buffer (NaCl 140 mM, KCl 3.8 mM, EGTA (ethylene glycol tetraacetic acid) 1 mM, MgCl2 1 mM, Tris-HCl 20 mM, beta-mercaptoethanol 1 mM, pH 8.2) plus protease-inhibitor mix giving rise to the final concentrations of 0.5 mM Pefablock (Roche), 10 μM Leupeptin, 5 μM Trypsininhibitor, 2 mM Benzamidin and 10 μM Pepstatin A. The suspension is sonified and thereafter centrifuged for 15 min at 10,000 g. The resulting supernatant (platelet lysate) is used for enzymatic testings.
PDE5A1 activity is inhibited by the compounds of the present subject matter in a modified SPA (scintillation proximity assay) test, supplied by Amersham Biosciences (see procedural instructions “phosphodiesterase [3H]cAMP SPA enzyme assay, code TRKQ 7090”), carried out in 96-well microtitre plates (MTP's). The test volume is 100 μl and contains 20 mM Tris buffer (pH 7.4), 0.1 mg of BSA (bovine serum albumin)/ml, 5 mM Mg^2+, 1 μM motapizone, 10 nM PDE2 inhibitor 2-(3,4-dimethoxybenzyl)-7-[(1R,2R)-2-hydroxy-1-(2-phenylethyl)propyl]-5-methylimidazo[5,1-f][1,2,4]triazin-4(3H)-one, 0.5 μM cGMP (cyclic guanosine monophosphate) (including about 50,000 cpm of [3H]cGMP as a tracer), 1 μl of the respective compound dilution in dimethylsulfoxide (DMSO) and sufficient PDE5-containing platelet lysat (10,000×g supernatant, see above) to ensure that 10-20 wt % of the cGMP is converted under the said experimental conditions. […] After a preincubation of 5 min at 37° C., the reaction is started by adding the substrate (cGMP) and the assay is incubated for a further 15 min; after that, it is stopped by adding SPA beads (50 μl). In accordance with the manufacturer's instructions, the SPA beads had previously been resuspended in water, but are then diluted 1:3 (v/v) in water; the diluted solution also contains 3 mM […] (IBMX) to ensure a complete PDE activity stop. After the beads have been sedimented (>30 min), the MTP's are analyzed in commercially available luminescence detection devices. The corresponding IC50 values of the compounds for the inhibition of PDE activity are determined from the concentration-effect curves by means of non-linear regression.
On to `COCC(=O)N1CC[C@@H](NC(=O)c2c(C)[nH]c3c(-c4cc(OC)c(F)cc4OCC4CC4)ncnc23)[C@H](O)C1` (relative stereo) [Example E115, 4-[2-(cyclopropylmethoxy)-4-fluoro-5-methoxyphenyl]-N-[(3R*,4R*)-3-hydroxy-1-(methoxyacetyl)piperidin-4-yl]-6-methyl-5H-pyrrolo[3,2-d]pyrimidine-7-carboxamide], for which the IC50 is less than 1 nM.

In the case of `Cc1[nH]c2c(-c3cc(F)ccc3OCC3CC3)ncnc2c1C(=O)N[C@@H]1CCN(C(=O)CO)C[C@H]1O` (relative stereo) [Example F30, 4-[2-(Cyclopropylmethoxy)-5-fluorophenyl]-N-[(3R*,4R*)-3-hydroxy-1-(hydroxyacetyl)piperidin-4-yl]-6-methyl-5H-pyrrolo[3,2-d]pyrimidine-7-carboxamide], the IC50 was 1 to 10 nM. As for `Cc1[nH]c2c(-c3c(OCC4CC4)ccc4c3OCO4)ncnc2c1C(=O)N[C@H]1CC[C@H](NC(=O)CO)CC1` [Example F3, 4-[5-(Cyclopropylmethoxy)-1,3-benzodioxol-4-yl]-N-[trans-4-(glycoloylamino)cyclohexyl]-6-methyl-5H-pyrrolo[3,2-d]pyrimidine-7-carboxamide], the IC50 is less than 1 nM. The figure for `CCC(=O)N[C@H]1CC[C@H](NC(=O)c2c(C)[nH]c3c(-c4cc(C)c(F)cc4OCC4CC4)ncnc23)CC1` [Example E123, 4-[2-(Cyclopropylmethoxy)-4-fluoro-5-methylphenyl]-6-methyl-N-[trans-4-(propanoylamino)cyclohexyl]-5H-pyrrolo[3,2-d]pyrimidine-7-carboxamide] is less than 1 nM; for `COCC(=O)N1CCC(NC(=O)c2c(C)[nH]c3c(-c4cc(OC)c(F)cc4OCC4CC4)nc(C)nc23)CC1` [Example E175, 4-[2-(Cyclopropylmethoxy)-4-fluoro-5-methoxyphenyl]-N-[1-(methoxyacetyl)piperidin-4-yl]-2,6-dimethyl-5H-pyrrolo[3,2-d]pyrimidine-7-carboxamide] it is less than 1 nM; for `CC(=O)N[C@H]1CC[C@@H](NC(=O)c2c(C)[nH]c3c(-c4cc(C(C)C)ccc4OCC4CC4)ncnc23)CC1` [Example E161, N-[cis-4-(Acetylamino)cyclohexyl]-4-[2-(cyclopropylmethoxy)-5-(propan-2-yl)phenyl]-6-methyl-5H-pyrrolo[3,2-d]pyrimidine-7-carboxamide] it is less than 1 nM.

As to `Cc1[nH]c2c(-c3ccc(F)cc3OCC3CC3)ncnc2c1C(=O)N[C@@H]1CN(C(=O)CO)C[C@H]1O` (relative stereo) [Example F19, 4-[2-(Cyclopropylmethoxy)-4-fluorophenyl]-N-[(3R*,4R*)-4-hydroxy-1-(hydroxyacetyl)pyrrolidin-3-yl]-6-methyl-5H-pyrrolo[3,2-d]pyrimidine-7-carboxamide], the IC50 was 1 to 10 nM. With `CC(=O)N1CCC(NC(=O)c2c(C)[nH]c3c(-c4ccc(F)cc4OCC4CC4)ncnc23)CC1` [Example E19, N-(1-acetylpiperidin-4-yl)-4-[2-(cyclopropylmethoxy)-4-fluorophenyl]-6-methyl-5H-pyrrolo[3,2-d]pyrimidine-7-carboxamide] the figure was less than 1 nM; with `CCC(=O)N[C@H]1CC[C@H](NC(=O)c2c(C)[nH]c3c(-c4cc(OC)c(F)cc4OCC4CC4)ncnc23)CC1` [Example E107, 4-[2-(Cyclopropylmethoxy)-4-fluoro-5-methoxyphenyl]-6-methyl-N-[trans-4-(propionylamino)cyclohexyl]-5H-pyrrolo[3,2-d]pyrimidine-7-carboxamide], less than 1 nM.

For `CC(=O)N[C@H]1CC[C@H](NC(=O)c2c(C)[nH]c3c(-c4cc(C(C)=O)ccc4OCC4CC4)ncnc23)CC1` [Example E166, N-[trans-4-(Acetylamino)cyclohexyl]-4-[5-acetyl-2-(cyclopropylmethoxy)phenyl]-6-methyl-5H-pyrrolo[3,2-d]pyrimidine-7-carboxamide], the IC50 is less than 1 nM. The figure for `CCC(=O)N1C[C@@H](O)[C@H](NC(=O)c2c(C)[nH]c3c(-c4c(OCC5CC5)ccc5c4OCO5)ncnc23)C1` (relative stereo) [Example E17, 4-[5-(Cyclopropylmethoxy)-1,3-benzodioxol-4-yl]-N-[(3R*,4R*)-4-hydroxy-1-propionylpyrrolidin-3-yl]-6-methyl-5H-pyrrolo[3,2-d]pyrimidine-7-carboxamide] is less than 1 nM. With `CCC(=O)N1C[C@@H](O)[C@H](NC(=O)c2c(C)[nH]c3c(-c4ccc(F)cc4OCC4CC4)ncnc23)C1` (relative stereo) [Example E32, 4-[2-(Cyclopropylmethoxy)-4-fluorophenyl]-N-[(3R*,4R*)-4-hydroxy-1-propanoylpyrrolidin-3-yl]-6-methyl-5H-pyrrolo[3,2-d]pyrimidine-7-carboxamide] the figure was 1 to 10 nM; with `COc1cc(OCC2CC2)c(-c2ncnc3c(C(=O)N[C@H]4CC[C@H](NC(=O)CO)CC4)c(C)[nH]c23)cc1F` [Example F85, 4-[2-(Cyclopropylmethoxy)-5-fluoro-4-methoxyphenyl]-N-[trans-4-(glycoloylamino)cyclohexyl]-6-methyl-5H-pyrrolo[3,2-d]pyrimidine-7-carboxamide], less than 1 nM; with `COc1cc(-c2ncnc3c(C(=O)NC4CCN(C(=O)CO)CC4)c(C)[nH]c23)c(OCC2CC2)cc1F` [Example F65, 4-[2-(Cyclopropylmethoxy)-4-fluoro-5-methoxyphenyl]-N-(1-glycoloylpiperidin-4-yl)-6-methyl-5H-pyrrolo[3,2-d]pyrimidine-7-carboxamide], less than 1 nM. For `CCC(=O)N1CC[C@@H](NC(=O)c2c(C)[nH]c3c(-c4cc(F)c(OC)cc4OCC4CC4)ncnc23)[C@H](O)C1` (relative stereo) [Example E143, 4-[2-(Cyclopropylmethoxy)-5-fluoro-4-methoxyphenyl]-N-[(3R*,4R*)-3-hydroxy-1-propanoylpiperidin-4-yl]-6-methyl-5H-pyrrolo[3,2-d]pyrimidine-7-carboxamide], the IC50 is less than 1 nM. With `CCOc1ccc(C(F)(F)F)cc1-c1ncnc2c(C(=O)NC3CCN(C(=O)CO)CC3)c(C)[nH]c12` [Example F63, 4-[2-Ethoxy-5-(trifluoromethyl)phenyl]-N-[1-(hydroxyacetyl)piperidin-4-yl]-6-methyl-5H-pyrrolo[3,2-d]pyrimidine-7-carboxamide] the figure was less than 1 nM. With `COCC(=O)N[C@H]1CC[C@H](NC(=O)c2c(C)[nH]c3c(-c4c(OCC5CC5)ccc5c4OCO5)ncnc23)CC1` [Example E7, 4-[5-(Cyclopropylmethoxy)-1,3-benzodioxol-4-yl]-N-{trans-4-[(methoxyacetyl)amino]cyclohexyl}-6-methyl-5H-pyrrolo[3,2-d]pyrimidine-7-carboxamide], the IC50 was less than 1 nM. On to `COCC(=O)N1CC[C@@H](NC(=O)c2c(C)[nH]c3c(-c4cc(OC)c(F)cc4OCC4CC4)ncnc23)C1` [Example E181, 4-[2-(Cyclopropylmethoxy)-4-fluoro-5-methoxyphenyl]-N-[(3R)-1-(methoxyacetyl)pyrrolidin-3-yl]-6-methyl-5H-pyrrolo[3,2-d]pyrimidine-7-carboxamide], for which the IC50 was less than 1 nM. With `Cc1[nH]c2c(-c3c(OCC4CC4)ccc4c3OCO4)ncnc2c1C(=O)NC1CCN(C(=O)CO)CC1` [Example F1, 4-[5-(Cyclopropylmethoxy)-1,3-benzodioxol-4-yl]-N-(1-glycoloylpiperidin-4-yl)-6-methyl-5H-pyrrolo[3,2-d]pyrimidine-7-carboxamide] the figure was less than 1 nM. The figure for `Cc1cc(-c2ncnc3c(C(=O)N[C@H]4CC[C@H](NC(=O)[C@H](C)O)CC4)c(C)[nH]c23)c(OCC2CC2)cc1F` [Example F78, 4-[2-(Cyclopropylmethoxy)-4-fluoro-5-methylphenyl]-N-(trans-4-{[(2S)-2-hydroxypropanoyl]amino}cyclohexyl)-6-methyl-5H-pyrrolo[3,2-d]pyrimidine-7-carboxamide] is less than 1 nM.
